In patent US20210188843A1, “QUINOLINE COMPOUNDS AND THEIR PREPARATION AND USE AS ANTIMALARIAL AGENTS” (The United States of America,as represented by the …, priority 2018, published 2021):
pEC50: −log10 of the molar value. In brackets after ≈: the same amount, converted by molar mass. Like-named read-outs stand apart in the source and are kept apart here.

Key:
[1] = Solubility pH 7.4; assay type: physicochemical; settings: aqueous buffer
[2] = Microsomal stability (rat); assay type: in vitro ADME; settings: rat microsomes
[3] = PAMPA permeability; assay type: in vitro ADME
[4] = tested on: Asexual parasites of P. falciparum strain 3D7; experiment: In vitro drug activity on asexual parasites (SYBR Green assay); assay type: cell-based; settings: Plasmodium falciparum, read-out: Asexual EC50
Summary of the method: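 Growth was measured by SYBR Green I fluorescence (excitation 490 nm, emission 520 nm) after freeze-thaw lysis and 30 min staining at room temperature. Parasites (0.5% parasitemia, 2% hematocrit) had been incubated 72 h with compound, DMSO below 0.5%. Conditions were run in duplicate with no-drug and RBC-alone controls.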

[5] = Table 1, read-out: Microsomal Stability (rat) T1/2
[6] = Table 1, P. falciparum 3D7 asexual stage, 72 h
[7] = Table 3, read-out: Microsomal Stability (rat) T1/2
[8] = Table 3, P. falciparum 3D7 asexual stage, 72 h

SMILES	solubility ([1]; Table 1)	half-life [2, 5]	Papp ([3]; Table 1)	pEC50 [4, 6]	also measured
Cc1ccc(C#N)cc1-n1/c(=N/C#N)n(C)c2cnc3ccc(-c4ccc(Cl)cc4)cc3c21 [Compound 8, (E)-N-(8-(4-chlorophenyl)-1-(5-cyano-2-methylphenyl)-3-methyl-1,3-dihydro-2H-imidazo[4,5-c]quinolin-2-ylidene)cyanamide]	< 1 µg/mL	> 30 min	1190 ×10⁻⁶ cm/s	7.22	
CSc1ccc(C#N)cc1-n1/c(=N/C#N)n(C)c2cnc3ccc(-c4ccc(Cl)cc4)cc3c21 [Compound 18, (E)-N-(8-(4-chlorophenyl)-1-(5-cyano-2-(methylthio)phenyl)-3-methyl-1,3-dihydro-2H-imidazo[4,5-c]quinolin-2-ylidene)cyanamide]	< 1 µg/mL	16.9 min	247 ×10⁻⁶ cm/s	6.25	
Cn1c(=N)n(-c2cccc(C(F)(F)F)c2)c2c3cc(-c4ccc(Cl)cc4)ccc3ncc21 [Compound 26, 8-(4-chlorophenyl)-3-methyl-1-(3-(trifluoromethyl)phenyl)-1,3-dihydro-2H-imidazo[4,5-c]quinolin-2-imine]	< 1 µg/mL	> 30 min	1670 ×10⁻⁶ cm/s	6.28	
Cc1ccc(C#N)cc1-n1c(=N)n(C)c2cnc3ccc(-c4cccc(N)c4)cc3c21 [Compound 38, 3-(8-(3-aminophenyl)-2-imino-3-methyl-2,3-dihydro-1H-imidazo[4,5-c]quinolin-1-yl)-4-methylbenzonitrile]	> 40 µg/mL	> 30 min	435 ×10⁻⁶ cm/s	7.08	
Cc1nc(N2CCOCC2)c(C#N)cc1-n1c(=N)n(C)c2cnc3ccc(-c4ccc(Cl)cc4)cc3c21 [Compound 21, 5-(8-(4-chlorophenyl)-2-imino-3-methyl-2,3-dihydro-H-imidazo[4,5-c]quinolin-1-yl)-6-methyl-2-morpholinonicotinonitrile]	4.4 µg/mL (≈ 8.63 µM)	> 30 min	1560 ×10⁻⁶ cm/s	6.50	
N=c1ccc2cnc3ccc(-c4ccc(N)nc4)cc3c2n1-c1cccc(C(F)(F)F)c1					solubility ([1]; Table 2): > 64 µg/mL; half-life ([2]; Table 2, read-out: Microsomal Stability (rat) T1/2): > 30 min; Papp ([3]; Table 2): 228 ×10⁻⁶ cm/s; pEC50 ([4]; Table 2, P. falciparum 3D7 asexual stage, 72 h): 7.66
Cc1ccc(C#N)cc1-n1/c(=N/C#N)n(C)c2cnc3ccc(-c4ccc(N)nc4)cc3c21 [Compound 4, (E)-N-(8-(6-aminopyridin-3-yl)-1-(5-cyano-2-methylphenyl)-3-methyl-1,3-dihydro-2H-imidazo[4,5-c]quinolin-2-ylidene)cyanamide]	3.7 µg/mL (≈ 8.6 µM)	> 30 min	34.1 ×10⁻⁶ cm/s	7.92	
Cn1c(=N)n(-c2cncnc2)c2c3cc(-c4ccc(N)nc4)ccc3ncc21					solubility ([1]; Table 3): 33.9 µg/mL (≈ 92 µM); half-life [2, 7]: > 30 min; Papp ([3]; Table 3): 12.9 ×10⁻⁶ cm/s; pEC50 [4, 8]: 6.84
Cc1ccc(C#N)cc1-n1c(=N)n(C)c2cnc3ccc(-c4cccc(CN(C)C)c4)cc3c21 [Compound 24, 3-(8-(3-((dimethylamino)methyl)phenyl)-2-imino-3-methyl-2,3-dihydro-1H-imidazo[4,5-c]quinolin-1-yl)-4-methylbenzonitrile]	> 44 µg/mL	> 30 min	405 ×10⁻⁶ cm/s	6.01	
Cn1c(=N)n(-c2cncnc2)c2c3cc(-c4cccc(F)c4)ccc3ncc21					solubility ([1]; Table 3): 24.9 µg/mL (≈ 67.2 µM); half-life [2, 7]: > 30 min; Papp ([3]; Table 3): 60.6 ×10⁻⁶ cm/s; pEC50 ([4]; 3D7, 72 h): 6.77
COc1ccc(-c2ccc3ncc4c(c3c2)n(-c2cncnc2)c(=N)n4C)cc1OC					solubility ([1]; Table 3): > 61 µg/mL; half-life [2, 7]: > 30 min; Papp ([3]; Table 3): 510 ×10⁻⁶ cm/s; pEC50 [4, 8]: 7.77
Cc1ccc(C#N)cc1-n1c(=N)n(C)c2cnc3ccc(-c4cccc(O)c4)cc3c21 [Compound 37, 3-(8-(3-hydroxyphenyl)-2-imino-3-methyl-2,3-dihydro-1H-imidazo[4,5-c]quinolin-1-yl)-4-methylbenzonitrile]	> 40 µg/mL	> 30 min	10.3 ×10⁻⁶ cm/s	7.34	
Cc1ccc(C#N)cc1-n1c(=N)n(C)c2cnc3ccc(C4=CCN(C)C4)cc3c21 [Compound 60, 3-(2-imino-3-methyl-8-(1-methyl-2,5-dihydro-1H-pyrrol-3-yl)-2,3-dihydro-1H-imidazo[4,5-c]quinolin-1-yl)-4-methylbenzonitrile]	> 39 µg/mL	> 30 min	2 ×10⁻⁶ cm/s	6.32	
Cc1ccc(-c2ccc3ncc4c(c3c2)n(-c2cncnc2)c(=N)n4C)cc1					solubility ([1]; Table 3): 18.5 µg/mL (≈ 50.5 µM); half-life [2, 7]: > 30 min; Papp ([3]; Table 3): 32.3 ×10⁻⁶ cm/s; pEC50 [4, 8]: 6.64
Cn1c(=N)n(-c2cncnc2)c2c3cc(-c4ccc(Cl)cc4)ccc3ncc21					solubility ([1]; Table 3): 16.3 µg/mL (≈ 42.1 µM); half-life [2, 7]: > 30 min; Papp ([3]; Table 3): 397 ×10⁻⁶ cm/s; pEC50 [4, 8]: 6.66
Cc1ccc(C#N)cc1-n1c(=N)n(C)c2cnc3ccc(-c4ccccn4)cc3c21 [Compound 91, 3-(2-imino-3-methyl-8-(pyridin-2-yl)-2,3-dihydro-1H-imidazo[4,5-c]quinolin-1-yl)-4-methylbenzonitrile]	> 39 µg/mL	> 30 min	1370 ×10⁻⁶ cm/s	6.37	
Cc1cc(N2CC3(COC3)C2)c(C#N)cc1-n1c(=N)n(C)c2cnc3ccc(-c4ccc(Cl)cc4)cc3c21 [Compound 121, 5-(8-(4-chlorophenyl)-2-imino-3-methyl-2,3-dihydro-1H-imidazo[4,5-c]quinolin-1-yl)-4-methyl-2-(2-oxa-6-azaspiro[3.3]heptan-6-yl)benzonitrile]	1.3 µg/mL (≈ 2.5 µM)	> 30 min	6.2 ×10⁻⁶ cm/s	6.83	
Cc1ccc(C#N)cc1-n1c(=N)n(C)c2cnc3ccc(-c4ccc(F)c(O)c4)cc3c21 [Compound 39, 3-(8-(4-fluoro-3-hydroxyphenyl)-2-imino-3-methyl-2,3-dihydro-1H-imidazo[4,5-c]quinolin-1-yl)-4-methylbenzonitrile]	> 42 µg/mL	> 30 min	147 ×10⁻⁶ cm/s	7.26	
Cn1c(=N)n(-c2cccc(N3CCNCC3)c2)c2c3cc(-c4ccc(Cl)cc4)ccc3ncc21 [Compound 76, 8-(4-chlorophenyl)-3-methyl-1-(3-(piperazin-1-yl)phenyl)-1,3-dihydro-2H-imidazo[4,5-c]quinolin-2-imine]	> 46 µg/mL	> 30 min	28.3 ×10⁻⁶ cm/s	6.10	
Cc1ccc(C#N)cc1-n1c(=N)n(C)c2cnc3ccc(-c4ccc(Cl)cn4)cc3c21 [Compound 44, 3-(8-(5-chloropyridin-2-yl)-2-imino-3-methyl-2,3-dihydro-1H-imidazo[4,5-c]quinolin-1-yl)-4-methylbenzonitrile]	> 42 µg/mL	> 30 min	1560 ×10⁻⁶ cm/s	6.92	
Cc1cc(C#N)c(C#N)cc1-n1c(=N)n(C)c2cnc3ccc(-c4ccc(Cl)cc4)cc3c21 [Compound 135, 4-(8-(4-chlorophenyl)-2-imino-3-methyl-2,3-dihydro-1H-imidazo[4,5-c]quinolin-1-yl)-5-methylphthalonitrile]	< 1 µg/mL	> 30 min	397 ×10⁻⁶ cm/s	7.57	
Cc1ccc(C#N)cc1-n1c(=N)n(C)c2cnc3ccc(-c4ccc(Cl)c(C#N)c4)cc3c21 [Compound 30, 2-chloro-5-(1-(5-cyano-2-methylphenyl)-2-imino-3-methyl-2,3-dihydro-1H-imidazo[4,5-c]quinolin-8-yl)benzonitrile]	7.3 µg/mL (≈ 16.3 µM)	> 30 min	1210 ×10⁻⁶ cm/s	7.22	
Cn1c(=N)n(-c2cccc(O)c2)c2c3cc(-c4ccc(Cl)cc4)ccc3ncc21 [Compound 79, 3-(8-(4-chlorophenyl)-2-imino-3-methyl-2,3-dihydro-1H-imidazo[4,5-c]quinolin-1-yl)phenol]	9.7 µg/mL (≈ 24.2 µM)	> 30 min	42 ×10⁻⁶ cm/s	5.85	
CC(=O)NC1CCN(c2cc(C)c(-n3c(=N)n(C)c4cnc5ccc(-c6ccc(Cl)cc6)cc5c43)cc2C#N)CC1 [Compound 132, N-(1-(4-(8-(4-chlorophenyl)-2-imino-3-methyl-2,3-dihydro-1H-imidazo[4,5-c]quinolin-1-yl)-2-cyano-5-methylphenyl)piperidin-4-yl)acetamide]	4.6 µg/mL (≈ 8.15 µM)	> 30 min	7 ×10⁻⁶ cm/s	7.26	
